Patent US20020039780A1, “Salicyclic acid inducible genes and promoters” (priority 1998, published 2002)

Tested on: G8-1
Experiment: Northern analysis of mRNA accumulation in cultured tobacco cells
Format: cell-based
Method: FIG. 1. […] Northern analysis of genes identified by differential display. Gel-purified DNA fragments produced by ddPCR were either used directly for random-primed labeling and probing of Northern filters (e.g. C7-1, C6-1, and G9-2) or first subcloned and released by restriction digest. Each lane contains 1 μg of poly(A) mRNA from cultured tobacco cells treated with (1) H2O, 4 hr; (2) 200 μM SA, 4 hr; (3) 71 μM CHX, 5 hr; (4) 71 μM CHX, 5 hr plus 200 μM SA after 1 hr (4 hr total); (5) 20 μM SA, 2 hr; (7) 200 μM SA, 8 hr.
FIG. 2. Time course of SA-induced gene expression. Northern analysis of representative differential display genes following treatment of cultured tobacco cells with SA for the indicated time (in hours, except lanes 2-4, which refer to 10, 20, and 30 min.). Twenty micrograms of total RNA was loaded per lane. Blots were hybridized with ddPCR fragments indicated at right or with the β-ATPase gene as a loading control probe. Autoradiogram exposure times were optimized for each gene. […] Labels on left indicate response class.
FIG. 4. Specificity of induction among SA analogs and other signalling compounds. Northern analysis of representative differential display genes following treatment of tobacco cells with 100 μM or 1 mM (left and right side of triangles, respectively) of the following chemicals for 2-2.5 hr: salicylic acid (SA, lanes 4 and 5), acetylSA (ASA, lanes 6 and 7), benzoic acid (BA, lanes 8 and 9), 4-hydroxybenzoic (4HBA, lanes 10 and 11), thiamine (thia, lanes 12 and 13), methyljasmonate (MJ, lanes 14 and 15), abscisic acid (ABA, lanes 16 and 17), or 2,4-dichlorophenoxyacetic acid (2,4-D, lanes 18 and 19). Control treatments are H2O (H, lane 1), 1% ethanol (E, solvent concentration in MJ treatments, lane 2), or 1% DMSO (D, solvent concentration in 2,4D treatments, lane 3). Blots were hybridized with ddPCR fragments indicated at right or with the β-ATPase geneas a loading control probe. Autoradiogram exposure times were optimized for each gene. […] Labels on left indicate response class.
FIG. 5. Dose response of C18-1 and G8-1 to a range of chemicals. Northern analysis of tobacco cell cultures with eight concentrations of SA, ASA, BA, 4HBA, Thia, MJ, ABA, 2,4-D, or H2O for 2-2.5 hr. Concentrations were 0.1, 1, 3, 10, 30, 100, 300 μM or […], as indicated.
FIG. 6. […] Graphic representation of mRNA accumulation of G8-1 ( ), C18se -1 (♦), and IEGT (o) in response to a 2-2.5 hr incubation of cultured tobacco cells with a range of SA concentrations. RNA gel blots were quantitated by phosphorimaging analysis and normalized relative to the β-ATPase gene loading control (not shown).
Differential display technology (Liang, P. and Pardee, A. B., Science 257: 967-971, 1992) was used to identify genes activated in the presence of SA, CHX and both. Therefore the absence or presence of SA, induction at 3 timepoints of SA-treatment, 2 different concentrations of SA and the effect of addition of CHX were measured. Seven treatments in total were performed. Treatment of tobacco BY-2 suspension cells and leaves and differential display PCR reactions were performed as described (Horvath and Chua (1996), Plant Mol. Biol. 31, 1061-1072).
The specificity for induction by SA was tested by treating tobacco cells with a range of SA analogs and plant signalling compounds at 0.1 and 1 mM for approximately 2.5 h.

With `O=C(O)c1ccccc1O` [SA, salicylic acid] the “G8-1 mRNA levels at 20 μM SA” value (20 μM SA) was “comparable to those at 200 μM”, the “G8-1 induction at 0.1 mM versus 1 mM” value (0.1 and 1 mM, approximately 2.5 h) was “equal or greater induction at 0.1 mM versus 1 mM” and the “mRNA induction of G8-1 (class III)” value (SA at 2, 4, 8 h, 71 μM CHX 5 hrs) was “rapid mRNA induction”. For the same compound, the “time at which G8-1 is first detected” value (SA time course) was 30 to 60 min, the “time at which G8-1 reaches a plateau” value (SA time course) was 2 to 2.5 h and the “time for which G8-1 plateau is maintained” value (SA time course) was “at least 12 h”.
